Results taken from US4556737A, “Sulfonium compounds, processes for preparing the compounds and pharmacological composiitons containing the same” (Taiho Pharmaceutical Company Limited, priority 1983, dated 1985).

Experiments:
[1] = tested on: passive cutaneous anaphylaxis (PCA); experiment: Effect on passive cutaneous anaphylaxis (PCA); format: in vivo, male Wister rats; settings: 1 hour prior to antigen challenge, rat
Protocol: (1) Effect on passive cutaneous anaphylaxis (PCA)
A serum containing the homocytotropic antibody was intracutaneously injected at four points of the shaven back of the male Wister rats weighing 180 to 200 g. Fourty-eight hours after the injection, a physiological saline containing 2.0 mg of DNP-As and 2.5 mg of Evans Blue to induce response, and the rats were dehematized to death in 30 minutes. […] The present compounds were administered to the rats 1 hour prior to the antigen challenge.

Acute toxicity test = settings: mouse, in vivo, ip; male ddy mice, intraperitoneal, solution in physiological saline, up-down method
Protocol: Male ddy mice weighing about 20 g were used. A solution of the compound in physiological saline was injected intraperitoneally. The dose lethal to 50% of mice was determined by the up-down method.

SMILES	inhibition in vivo at 100 mg/kg [1] [%]	LD50 (Acute toxicity test) [mg/kg]	other results
CCCOCC(O)COc1ccc(NC(=O)CC[S+](C)C)cc1 (centres unmarked) [Compound 10]	47	171	
COCC(COc1ccc(NC(=O)CC[S+](C)C)cc1)OC (centres unmarked) [Compound 19]		254	inhibition in vivo at 10 mg/kg [1]: 51.6%
CCOCCOCC(O)COc1ccc(OCC[S+](C)C)cc1 (centres unmarked) [Compound 48]		302	inhibition in vivo at 20 mg/kg [1]: 48%
C[S+](C)CCOc1cccc(OCC(O)CO)c1 (centres unmarked) [Compound 42]		231	inhibition in vivo at 200 mg/kg [1]: 58.4%
COCC(O)COc1ccc(OCC[S+](C)C)cc1.Cc1ccc(S(=O)(=O)[O-])cc1 (centres unmarked) [Compound 45, 2-{4-(2-hydroxy-3-methoxypropoxy)phenoxy}ethyldimethylsulfonium p-toluenesulfonate]		302	inhibition in vivo at 200 mg/kg [1]: 59%
C[S+](C)CCOc1ccccc1OCC(O)CO.Cc1ccc(S(=O)(=O)[O-])cc1 (centres unmarked) [Compound 40, 2-{2-(2,3-dihydroxypropoxy)phenoxy}ethyldimethylsulfonium p-toluenesulfonate]		283	inhibition in vivo at 200 mg/kg [1]: 53.2%
CCOCC(COc1ccc(NC(=O)CC[S+](C)C)cc1)OC(C)=O (centres unmarked) [Compound 25]	63.6	233	
C[S+](C)CCC(=O)Nc1ccc(OCC(O)COC2CCCCC2)cc1 (centres unmarked) [Compound 17]	47	93.6	
C[S+](C)CCOc1ccc(OCC(O)COC(N)=O)cc1 (centres unmarked) [Compound 54]		327	inhibition in vivo at 20 mg/kg [1]: 51.8%
CCOCC(O)COc1ccc(NC(=O)CC[S+](C)C)cc1 (centres unmarked) [Compound 8]		254	inhibition in vivo at 20 mg/kg [1]: 57%
CCOCC(O)COc1ccc(OCC[S+](C)C)cc1 (centres unmarked) [Compound 46]	64.8		
COCC(O)COc1ccc(NC(=O)CC[S+](C)C)cc1.Cc1ccc(S(=O)(=O)[O-])cc1 (centres unmarked) [Compound 7, 2-{4-(2-hydroxy-3-methoxypropoxy)phenylcarbamoyl}ethyldimethylsulfonium p-toluenesulfonate]	57	359	
C[S+](C)CCOc1ccc(OCC(O)CO)cc1 (centres unmarked) [Compound 44]		352	inhibition in vivo at 200 mg/kg [1]: 57%
CCCOCC(COc1ccc(NC(=O)CC[S+](C)C)cc1)OCCC (centres unmarked) [Compound 29]		75.2	inhibition in vivo at 50 mg/kg [1]: 46.2%
C[S+](C)CCOc1ccc(OCC(O)COc2ccccc2)cc1.Cc1ccc(S(=O)(=O)[O-])cc1 (centres unmarked) [Compound 51, 2-{4-(2-hydroxy-3-phenoxypropoxy)phenoxy}ethyldimethylsulfonium p-toluenesulfonate]	56.7	150	
C[S+](C)CCC(=O)Nc1ccc(OCC(O)CO)cc1.Cc1ccc(S(=O)(=O)[O-])cc1 (centres unmarked) [Compound 4, 2-{4-(2,3-dihydroxypropoxy)phenylcarbamoyl}ethyldimethylsulfonium p-toluenesulfonate]		1040	inhibition in vivo at 50 mg/kg [1]: 48.8%
CC(=O)OCC(COc1ccc(OCC[S+](C)C)cc1)OC(C)=O (centres unmarked) [Compound 55]		291	inhibition in vivo at 50 mg/kg [1]: 55.2%
C[S+](C)CCOc1ccc(OCC(O)COCC2CCCO2)cc1 (centres unmarked) [Compound 49]		221	inhibition in vivo at 20 mg/kg [1]: 42.5%
CCOCC(COc1ccc(OCC[S+](C)C)cc1)OCC (centres unmarked) [Compound 52]	53.3	132	
CCOCC(COc1ccc(NC(=O)CC[S+](C)C)cc1)OCC (centres unmarked) [Compound 20]		179	inhibition in vivo at 50 mg/kg [1]: 35.1%
C[S+](C)CCOc1ccc(OCC(COC(=O)c2ccccc2)OC(=O)c2ccccc2)cc1 (centres unmarked) [Compound 56]	44.7	85	
CCCOCC(O)COc1ccc(OCC[S+](C)C)cc1 (centres unmarked) [Compound 47]		293	inhibition in vivo at 50 mg/kg [1]: 39.2%
CC(=O)OCC(COc1ccc(NC(=O)CC[S+](C)C)cc1)OC(C)=O (centres unmarked) [Compound 32]		366	inhibition in vivo at 10 mg/kg [1]: 47%
C[S+](C)CCC(=O)Nc1ccc(OCC(O)COc2ccccc2)cc1 (centres unmarked) [Compound 18]	34	112	
